In US20110190365A1, “Insecticidal 4-phenyl-1H-pyrazoles” (Bayer Crop Science AG, priority 2008, published 2011):

assay: log P by HPLC on a reversed-phase column (C18), EEC Directive 79/831 Annex V.A8; type: physicochemical; details: HCOOH
Experimental: The stated log P values were determined in accordance with EEC Directive 79/831 Annex V.A8 by HPLC (High Performance Liquid Chromatography) using a reversed-phase column (C18).

SMILES	log P (HCOOH)
Cc1cc(-n2nc(CC(C)C)c(-c3ccc(Cl)cc3)c2N)ccc1C(=O)NCc1ccccn1 [I-A-Q2-382]	I-A-Q2-382: log P (HCOOH): 2.84
CNC(=O)c1ccc(-n2nc(C(F)(F)F)c(-c3ccc(Cl)c(Cl)c3)c2N)cc1 [I-A-Q2-194]	I-A-Q2-194: log P (HCOOH): 3.37
CC(NC(=O)c1ccc(-n2nc(C(F)(F)F)c(-c3cccc(Cl)c3)c2N)cc1)c1ccccc1 (centres unmarked) [I-A-Q2-089]	I-A-Q2-089: log P (HCOOH): 3.89
Cc1cc(-n2nc(C(F)(F)c3cccc(Br)c3)c(-c3cc(Cl)cc(C(F)(F)F)c3)c2N)ccc1C(=O)NCC(F)(F)C(F)F [I-A-Q2-285]	I-A-Q2-285: log P (HCOOH): 4.95
COC(=O)c1ccc(-n2nc(C(F)(F)F)c(Br)c2N)cc1C [XI-A-082]	XI-A-082: log P (HCOOH): 3.52
Nc1c(-c2cccc(F)c2)c(C(F)(F)F)nn1-c1ccc(C(=O)NCC(F)(F)F)cc1 [I-A-Q2-183]	I-A-Q2-183: log P (HCOOH): 3.11
Nc1c(-c2cc(Cl)cc(Cl)c2)c(C(F)(F)F)nn1-c1ccc(C(=O)NCc2cccnc2)cn1 [I-A-Q2-107]	I-A-Q2-107: log P (HCOOH): 2.95
CNC(=O)c1ccc(-n2nc(-c3ccccc3)c(-c3ccc(Cl)cc3)c2N)cc1 [I-A-Q2-078]	I-A-Q2-078: log P (HCOOH): 2.94
CC(C)(C)NC(=O)c1ccc(-n2nc(C(F)(F)F)c(-c3cc(Cl)cc(Cl)c3)c2N)cc1 [I-A-Q2-146]	I-A-Q2-146: log P (HCOOH): 4.54
CCCc1nn(-c2ccc(C(=O)NCC(F)(F)C(F)F)c(C)c2)c(N)c1-c1ccc(Cl)cc1 [I-A-Q2-340]	I-A-Q2-340: log P (HCOOH): 3.56
Cc1cc(-n2nc(C(F)(F)F)c(-c3cc(Cl)cc(Cl)c3)c2N)ccc1C(=O)NCC1CC1 [I-A-Q2-220]	I-A-Q2-220: log P (HCOOH): 4.11
Cc1cc(-n2nc(C(F)(F)F)c(-c3ccc(C#N)cc3)c2N)ccc1C(=O)NCc1ccccn1 [I-A-Q2-349]	I-A-Q2-349: log P (HCOOH): 2.04
CC(C)NC(=O)c1ccc(-n2nc(C(F)(F)F)c(-c3ccc(Cl)cc3)c2N)cc1 [I-A-Q2-161]	I-A-Q2-161: log P (HCOOH): 3.37
CSCC(C)NC(=O)c1ccc(-n2nc(C(F)(F)F)c(-c3cc(Cl)cc(Cl)c3)c2N)cc1C (centres unmarked) [I-A-Q2-279]	I-A-Q2-279: log P (HCOOH): 4.43
Cc1cc(-n2nc(C(F)(F)F)c(-c3cc(F)cc(Cl)c3)c2N)ccc1C(=O)NCc1ccccn1 [I-A-Q2-344]	I-A-Q2-344: log P (HCOOH): 2.84
Cc1cc(-n2nc(C(F)(F)F)c(-c3cc(Cl)cc(Cl)c3)c2N)ccc1C(=O)NC(C)c1ccccn1 (centres unmarked) [I-A-Q2-015]	I-A-Q2-015: log P (HCOOH): 3.70
CC(C)NC(=O)c1ccc(-n2nc(C(F)(F)F)c(-c3cc(Cl)cc(Cl)c3)c2N)cc1 [I-A-Q2-135]	I-A-Q2-135: log P (HCOOH): 4.06
Nc1c(I)c(C(F)(F)F)nn1-c1ccc(C(=O)O)cc1 [XI-A-045]	XI-A-045: log P (HCOOH): 2.47
Cc1cc(-n2nc(C)c(-c3cc(Cl)ccc3Cl)c2N)ccc1C(=O)NCC(F)(F)C(F)F [I-A-Q2-335]	I-A-Q2-335: log P (HCOOH): 3.04
Cc1cc(-n2nc(C(F)(F)F)c(-c3cc(Cl)cc(Cl)c3)c2N)ccc1C(=O)NCC(F)F [I-A-Q2-017]	I-A-Q2-017: log P (HCOOH): 4.04
COC(CNC(=O)c1ccc(-n2nc(C(F)(F)F)c(-c3cc(Cl)cc(Cl)c3)c2N)cc1C)OC [I-A-Q2-224]	I-A-Q2-224: log P (HCOOH): 3.78

SMILES	log P (HCOOH)
Cc1cc(-n2nc(C(F)(F)F)c(-c3cc(Cl)cc(Cl)c3)c2I)ccc1C(=O)NCc1ncccn1 [I-A-Q2-275]	I-A-Q2-275: log P (HCOOH): 4.47
Cc1cc(-n2nc(C(F)(F)F)c(-c3cc(Cl)cc(Cl)c3)c2N)ccc1C(=O)N(C)CC(F)(F)C(F)F [I-A-Q2-033]	I-A-Q2-033: log P (HCOOH): 4.51
CCC(NC(=O)c1ccc(-n2nc(C(F)(F)F)c(-c3cc(Cl)cc(Cl)c3)c2N)cc1)C(F)(F)F (centres unmarked) [I-A-Q2-067]	I-A-Q2-067: log P (HCOOH): 4.65
Nc1c(-c2cccc(F)c2)c(C(F)(F)F)nn1-c1ccc(C(=O)NCc2ccccn2)cc1 [I-A-Q2-185]	I-A-Q2-185: log P (HCOOH): 2.14
Nc1c(-c2ccc(Cl)c(Cl)c2)c(C(F)(F)F)nn1-c1ccc(C(=O)NC2CC2)cc1 [I-A-Q2-157]	I-A-Q2-157: log P (HCOOH): 3.51
CC(NC(=O)c1ccc(-n2nc(C(F)(F)F)c(-c3ccc(Cl)c(F)c3)c2N)cc1)C(F)(F)F (centres unmarked) [I-A-Q2-166]	I-A-Q2-166: log P (HCOOH): 3.84
Cc1ncc(CNC(=O)c2ccc(-n3nc(C(F)(F)F)c(-c4cc(Cl)cc(Cl)c4)c3N)cc2C)c(N)n1 [I-A-Q2-053]	I-A-Q2-053: log P (HCOOH): 2.04
CS(=O)(=O)c1cc(-n2nc(C(F)(F)F)c(-c3cc(Cl)cc(Cl)c3)c2N)ccc1C(=O)NCc1ccccn1 [I-A-Q2-425]	I-A-Q2-425: log P (HCOOH): 2.99
Cc1cc(-n2nc(C(F)(F)F)c(-c3cccc(F)c3)c2N)ccc1C(=O)NCC(F)(F)C(F)F [I-A-Q2-311]	I-A-Q2-311: log P (HCOOH): 3.27
Cc1cc(-n2nc(C(F)(F)F)c(-c3ccccc3Br)c2N)ccc1C(=O)NCC(F)(F)C(F)F [I-A-Q2-423]	I-A-Q2-423: log P (HCOOH): 3.55
Cc1cc(-n2nc(C(F)(F)F)c(-c3cc(Cl)cc(Cl)c3)c2N)ccc1C(=O)NC(C)C1(Cl)CC1 (centres unmarked) [I-A-Q2-261]	I-A-Q2-261: log P (HCOOH): 4.76
Cc1cc(-n2nc(C(F)(F)F)c(-c3cc(Cl)cc(Cl)c3)c2N)ccc1C(=O)NC(c1ccc(C(F)(F)F)cc1)C(F)(F)F (centres unmarked) [I-A-Q2-242]	I-A-Q2-242: log P (HCOOH): 5.29
Cc1cc(-n2nc(C(F)(F)F)c(-c3cc(C(F)(F)F)cc(C(F)(F)F)c3)c2N)ccc1C(=O)NCc1ccccn1 [I-A-Q2-360]	I-A-Q2-360: log P (HCOOH): 3.47
Nc1c(-c2cc(Cl)cc(Cl)c2)c(C(F)(F)F)nn1-c1ccc(C(=O)NCc2ccc(Cl)nc2)cc1 [I-A-Q2-148]	I-A-Q2-148: log P (HCOOH): 4.12
Cc1cc(-n2nc(C(F)(F)F)c(-c3ccccc3Br)c2N)ccc1C(=O)NCC1CC1 [I-A-Q2-422]	I-A-Q2-422: log P (HCOOH): 3.41
Cc1cc(-n2nc(C(F)(F)F)c(-c3cc(Cl)cc(Cl)c3)c2N)ccc1C(=O)NCC(F)(F)C(F)(F)C(F)(F)F [I-A-Q2-266]	I-A-Q2-266: log P (HCOOH): 4.89
CC(C)NC(=O)c1ccc(-n2nc(C(F)(F)F)c(-c3cccc(F)c3)c2N)cc1 [I-A-Q2-181]	I-A-Q2-181: log P (HCOOH): 2.98
CSc1c(-c2cc(Cl)cc(Cl)c2)c(C(F)(F)F)nn1-c1ccc(C(=O)NCC(F)(F)C(F)F)c(C)c1 [I-A-Q2-282]	I-A-Q2-282: log P (HCOOH): 5.25
Cc1cc(-n2nc(C)c(-c3cccc(Cl)c3)c2N)ccc1C(=O)NCC(F)(F)C(F)F [I-A-Q2-331]	I-A-Q2-331: log P (HCOOH): 2.85
COc1ccc(CNC(=O)c2ccc(-n3nc(C(F)(F)F)c(-c4cc(Cl)cc(Cl)c4)c3N)cc2C)nc1 [I-A-Q2-032]	I-A-Q2-032: log P (HCOOH): 3.63

same assay, conditions: HCOOH; Table 4, compounds of formula I-A-Q4

SMILES	log P (HCOOH)
Nc1c(-c2ccc(Cl)c(Cl)c2)c(C(F)(F)F)nn1-c1ccc(C(=O)O)cc1 [I-A-Q4-089]	I-A-Q4-089: log P (HCOOH): 3.69
Cc1ccccc1-c1c(C(F)(F)F)nn(-c2ccc(Cl)cn2)c1N [I-A-Q4-054]	I-A-Q4-054: log P (HCOOH): 4.64
Nc1c(-c2cc(Cl)cc(C(F)(F)F)c2)c(C(F)(F)Cl)nn1-c1ccc(Cl)cn1 [I-A-Q4-059]	I-A-Q4-059: log P (HCOOH): 5.81
N#Cc1cc(-n2nc(C(F)(F)F)c(-c3cc(Cl)cc(Cl)c3)c2N)ccc1F [I-A-Q4-103]	I-A-Q4-103: log P (HCOOH): 4.44
CC(C)Cc1nn(-c2ccc(Cl)cn2)c(N)c1-c1ccc(Cl)cc1 [I-A-Q4-062]	I-A-Q4-062: log P (HCOOH): 5.97
COC(=O)c1ccc(-n2nc(C(F)(F)F)c(-c3cc(Cl)cc(Cl)c3)c2N)cc1Cl [I-A-Q4-104]	I-A-Q4-104: log P (HCOOH): 5.07
CCc1nn(-c2ccc(Cl)cn2)c(N)c1-c1ccc(Cl)cc1 [I-A-Q4-026]	I-A-Q4-026: log P (HCOOH): 5.02
Cc1nn(-c2ccc(Cl)cn2)c(N)c1-c1ccc(F)cc1 [I-A-Q4-038]	I-A-Q4-038: log P (HCOOH): 3.84
Cc1nn(-c2ccc(Cl)cn2)c(N)c1-c1ccccc1Cl [I-A-Q4-032]	I-A-Q4-032: log P (HCOOH): 3.89
CCCc1nn(-c2ccc(Cl)cn2)c(N)c1-c1ccc(Cl)cc1 [I-A-Q4-025]	I-A-Q4-025: log P (HCOOH): 5.51
Cc1ccc(-c2c(C(F)(F)F)nn(-c3ccc(Cl)cn3)c2N)cc1 [I-A-Q4-055]	I-A-Q4-055: log P (HCOOH): 4.83
Nc1c(-c2ccc(Cl)cc2Cl)c(C(F)(F)F)nn1-c1ccc(Cl)cn1 [I-A-Q4-044]	I-A-Q4-044: log P (HCOOH): 5.02

same assay, conditions: HPLC, reversed-phase C18, mobile phase with formic acid

SMILES	log P (HCOOH)
N#Cc1cc(-n2nc(C3CC3)c(-c3ccc(Cl)cc3)c2N)ccc1-n1cncn1 [I-A-Q1-064]	I-A-Q1-064: log P (HCOOH): 3.31
N#Cc1cc(-n2nc(C(F)(F)F)c(-c3cc(Cl)cc(Cl)c3)c2N)ccc1-n1nc(C(F)F)cc1C(F)F [I-A-Q1-080]	I-A-Q1-080: log P (HCOOH): 4.64
N#Cc1cc(-n2nc(C(F)(F)Oc3ccc(Cl)cc3)c(-c3cc(Cl)cc(C(F)(F)F)c3)c2N)ccc1-n1cncn1 [I-A-Q1-071]	I-A-Q1-071: log P (HCOOH): 4.84
CCCc1nn(-c2ccc(-n3cncn3)c(C#N)c2)c(N)c1-c1ccc(Cl)cc1 [I-A-Q1-065]	I-A-Q1-065: log P (HCOOH): 3.33
Nc1c(-c2cc(Cl)cc(Cl)c2)c(C(F)(F)F)nn1-c1ccc(-n2cncn2)c(Cl)c1 [I-A-Q1-069]	I-A-Q1-069: log P (HCOOH): 4.14
N#Cc1cc(-n2nc(C(F)(F)F)c(-c3cc(C(F)(F)F)cc(C(F)(F)F)c3)c2N)ccc1-n1cncn1 [I-A-Q1-027]	I-A-Q1-027: log P (HCOOH): 4.07
Cc1nn(-c2ccc(-n3cncn3)c(C#N)c2)c(N)c1-c1ccccc1Cl [I-A-Q1-060]	I-A-Q1-060: log P (HCOOH): 2.27
N#Cc1cc(-n2nc(C(F)(F)F)c(-c3cc(Cl)cc(Cl)c3)c2N)ccc1-n1ccnc1 [I-A-Q1-076]	I-A-Q1-076: log P (HCOOH): 2.98
N#Cc1cc(-n2nc(C(F)(F)F)c(-c3cc(Cl)cc(Cl)c3)c2N)ccc1-n1cc(Cl)cn1 [I-A-Q1-084]	I-A-Q1-084: log P (HCOOH): 4.70
